From ChEMBL document CHEMBL1743341, “Cytochrome p450 enzymes mechanism based inhibitors: common sub-structures and reactivity” (Curr Drug Metab, 2005)

What was measured:
Assay type in all cases: ADME
Cytochrome P450 1A2 [1] = target: T1, Cytochrome P450 1A2 (Homo sapiens, UniProt P05177); test: (§1) Mechanism based inhibition of human cytochrome P450 1A2 measured by phenacetin O-deethylation (POD)
T1 sequence (P05177 whole entry): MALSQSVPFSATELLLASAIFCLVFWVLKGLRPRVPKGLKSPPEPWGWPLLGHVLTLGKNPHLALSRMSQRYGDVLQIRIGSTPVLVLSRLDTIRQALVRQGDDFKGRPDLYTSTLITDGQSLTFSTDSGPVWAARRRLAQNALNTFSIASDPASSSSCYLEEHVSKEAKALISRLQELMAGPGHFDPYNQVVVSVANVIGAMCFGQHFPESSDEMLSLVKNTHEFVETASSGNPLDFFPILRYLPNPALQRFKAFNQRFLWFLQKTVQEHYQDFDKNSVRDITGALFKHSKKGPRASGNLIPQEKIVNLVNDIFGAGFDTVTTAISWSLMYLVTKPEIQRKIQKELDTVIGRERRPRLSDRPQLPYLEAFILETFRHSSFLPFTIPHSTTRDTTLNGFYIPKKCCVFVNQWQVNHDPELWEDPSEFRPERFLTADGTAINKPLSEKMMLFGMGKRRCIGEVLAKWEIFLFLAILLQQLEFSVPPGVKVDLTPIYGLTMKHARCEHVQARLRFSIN

CYP1A2 [2] = target: T2, CYP1A2 (Homo sapiens, UniProt P05177); test: as §1; conditions: human, probe phenacetin (O-deethylation, POD)
T2 sequence (P05177 whole entry): T1 sequence (P05177 whole entry)

Cytochrome P450 1A2 [3] = target: T3, Cytochrome P450 1A2 (Rattus norvegicus, UniProt P04799); test: (§2) Mechanism based inhibition of rat cytochrome P450 CYP1A2 measured by 7-methoxyresorufin O-demethylation (MROD)
T3 sequence (P04799 whole entry): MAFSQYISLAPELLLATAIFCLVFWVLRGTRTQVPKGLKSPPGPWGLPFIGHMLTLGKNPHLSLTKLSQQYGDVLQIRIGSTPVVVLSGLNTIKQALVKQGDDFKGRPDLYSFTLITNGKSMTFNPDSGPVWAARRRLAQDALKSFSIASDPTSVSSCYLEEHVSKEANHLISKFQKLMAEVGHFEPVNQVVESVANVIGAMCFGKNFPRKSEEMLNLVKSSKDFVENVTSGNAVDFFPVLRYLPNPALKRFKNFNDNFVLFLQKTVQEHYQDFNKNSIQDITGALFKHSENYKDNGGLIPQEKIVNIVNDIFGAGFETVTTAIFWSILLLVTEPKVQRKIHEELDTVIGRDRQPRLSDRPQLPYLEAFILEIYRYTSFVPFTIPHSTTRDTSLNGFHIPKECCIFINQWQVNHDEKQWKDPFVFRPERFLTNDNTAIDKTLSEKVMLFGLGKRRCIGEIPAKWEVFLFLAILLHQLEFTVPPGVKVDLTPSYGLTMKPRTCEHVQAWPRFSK

CYP1A2 [4] = target: T4, CYP1A2 (Rattus norvegicus, UniProt P04799); test: as §2; conditions: rat, probe 7-methoxyresorufin (O-demethylation, MROD)
T4 sequence (P04799 whole entry): T3 sequence (P04799 whole entry)

CYP1A1 = target: T5, CYP1A1 (Rattus norvegicus, UniProt P00185); test: (§3) Mechanism based inhibition of rat cytochrome P450 CYP1A1 measured by 7-ethoxyresorufin O-deethylation (EROD); conditions: rat, probe 7-ethoxyresorufin (O-deethylation, EROD)
T5 sequence (P00185 whole entry): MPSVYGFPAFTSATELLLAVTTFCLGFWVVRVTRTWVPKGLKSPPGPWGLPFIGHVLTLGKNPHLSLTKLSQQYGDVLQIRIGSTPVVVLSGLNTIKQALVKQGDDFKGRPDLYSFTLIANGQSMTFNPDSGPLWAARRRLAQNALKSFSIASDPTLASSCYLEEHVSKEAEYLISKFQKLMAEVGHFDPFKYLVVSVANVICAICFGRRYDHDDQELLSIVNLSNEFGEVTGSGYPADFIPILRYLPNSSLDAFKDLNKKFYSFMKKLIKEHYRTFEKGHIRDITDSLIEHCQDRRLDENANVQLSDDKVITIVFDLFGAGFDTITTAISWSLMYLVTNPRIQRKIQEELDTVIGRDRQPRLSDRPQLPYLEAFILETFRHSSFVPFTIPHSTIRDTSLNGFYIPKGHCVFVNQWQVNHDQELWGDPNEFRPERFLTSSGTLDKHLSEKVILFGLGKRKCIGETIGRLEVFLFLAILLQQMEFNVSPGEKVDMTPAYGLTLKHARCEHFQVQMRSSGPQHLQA

Cytochrome P450 1A1 [5] = target: T6, Cytochrome P450 1A1 (Rattus norvegicus, UniProt P00185); test: as §3
T6 sequence (P00185 whole entry): T5 sequence (P00185 whole entry)

Cytochrome P450 2E1 = Cytochrome P450 2E1 (Rattus norvegicus, UniProt P05182); test: Mechanism based inhibition of rat cytochrome P450 CYP2E1
Cytochrome P450 1A1 [6] = target: T7, Cytochrome P450 1A1 (Homo sapiens, UniProt P04798); test: Mechanism based inhibition of human cytochrome P450 1A1 measured by 7-ethoxyresorufin O-deethylation (EROD)
T7 sequence (P04798 whole entry): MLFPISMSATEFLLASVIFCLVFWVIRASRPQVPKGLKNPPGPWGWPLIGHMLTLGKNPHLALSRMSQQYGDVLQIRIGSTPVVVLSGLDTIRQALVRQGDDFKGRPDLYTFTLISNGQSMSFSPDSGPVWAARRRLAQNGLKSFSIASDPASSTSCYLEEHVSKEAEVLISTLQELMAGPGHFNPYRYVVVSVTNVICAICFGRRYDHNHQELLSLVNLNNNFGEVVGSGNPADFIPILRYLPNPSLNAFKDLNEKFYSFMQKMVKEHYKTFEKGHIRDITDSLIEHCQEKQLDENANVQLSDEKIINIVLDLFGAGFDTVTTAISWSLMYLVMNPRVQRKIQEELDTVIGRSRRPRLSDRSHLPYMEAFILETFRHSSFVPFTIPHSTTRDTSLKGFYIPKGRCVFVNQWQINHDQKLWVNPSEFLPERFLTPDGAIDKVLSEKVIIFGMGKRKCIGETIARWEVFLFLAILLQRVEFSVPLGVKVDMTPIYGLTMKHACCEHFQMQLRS

Cytochrome P450 1B1 = target: T8, Cytochrome P450 1B1 (Homo sapiens, UniProt Q16678); test: Mechanism based inhibition of human cytochrome P450 1B1 measured by 7-ethoxyresorufin O-deethylation (EROD)
T8 sequence (Q16678 whole entry): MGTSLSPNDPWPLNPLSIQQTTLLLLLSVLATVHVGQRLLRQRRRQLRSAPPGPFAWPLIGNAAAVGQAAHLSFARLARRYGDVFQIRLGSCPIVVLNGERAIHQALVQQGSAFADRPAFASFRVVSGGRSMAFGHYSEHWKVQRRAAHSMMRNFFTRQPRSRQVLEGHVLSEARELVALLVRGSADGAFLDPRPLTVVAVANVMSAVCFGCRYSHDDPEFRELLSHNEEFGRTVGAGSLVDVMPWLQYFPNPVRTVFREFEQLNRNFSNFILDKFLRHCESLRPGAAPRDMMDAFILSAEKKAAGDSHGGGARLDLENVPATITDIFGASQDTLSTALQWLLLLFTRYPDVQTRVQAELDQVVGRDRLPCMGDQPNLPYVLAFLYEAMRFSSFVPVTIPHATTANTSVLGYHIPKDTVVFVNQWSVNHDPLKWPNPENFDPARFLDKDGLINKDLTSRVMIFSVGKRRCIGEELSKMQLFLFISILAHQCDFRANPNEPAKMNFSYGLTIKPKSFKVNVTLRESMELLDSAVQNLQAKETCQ

Cytochrome P450 2C11 = target: T9, Cytochrome P450 2C11 (Rattus norvegicus, UniProt P08683); test: Mechanism based inhibition of rat cytochrome P450 CYP2C11 measured by 2-alpha and 16-alpha hydroxylation of testosterone
T9 sequence (P08683 whole entry): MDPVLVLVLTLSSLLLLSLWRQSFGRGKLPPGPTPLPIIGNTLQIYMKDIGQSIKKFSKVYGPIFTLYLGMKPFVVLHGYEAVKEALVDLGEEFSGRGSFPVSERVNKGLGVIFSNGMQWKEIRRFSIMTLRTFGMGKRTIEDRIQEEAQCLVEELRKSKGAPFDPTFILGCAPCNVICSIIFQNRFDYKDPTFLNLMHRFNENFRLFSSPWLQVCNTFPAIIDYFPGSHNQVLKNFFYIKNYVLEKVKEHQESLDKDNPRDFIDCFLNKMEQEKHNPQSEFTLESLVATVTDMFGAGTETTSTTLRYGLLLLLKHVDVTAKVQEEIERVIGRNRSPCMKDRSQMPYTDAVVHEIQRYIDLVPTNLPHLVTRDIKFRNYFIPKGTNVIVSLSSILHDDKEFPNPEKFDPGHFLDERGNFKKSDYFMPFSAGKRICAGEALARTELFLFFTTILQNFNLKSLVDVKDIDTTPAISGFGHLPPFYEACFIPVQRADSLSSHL

Cytochrome P450 2B1 [7] = target: T10, Cytochrome P450 2B1 (Rattus norvegicus, UniProt P00176); test: Mechanism based inhibition of rat cytochrome P450 CYP2B1 measured by 7-EFC O-deethylation activity; conditions: rat
T10 sequence (P00176 whole entry): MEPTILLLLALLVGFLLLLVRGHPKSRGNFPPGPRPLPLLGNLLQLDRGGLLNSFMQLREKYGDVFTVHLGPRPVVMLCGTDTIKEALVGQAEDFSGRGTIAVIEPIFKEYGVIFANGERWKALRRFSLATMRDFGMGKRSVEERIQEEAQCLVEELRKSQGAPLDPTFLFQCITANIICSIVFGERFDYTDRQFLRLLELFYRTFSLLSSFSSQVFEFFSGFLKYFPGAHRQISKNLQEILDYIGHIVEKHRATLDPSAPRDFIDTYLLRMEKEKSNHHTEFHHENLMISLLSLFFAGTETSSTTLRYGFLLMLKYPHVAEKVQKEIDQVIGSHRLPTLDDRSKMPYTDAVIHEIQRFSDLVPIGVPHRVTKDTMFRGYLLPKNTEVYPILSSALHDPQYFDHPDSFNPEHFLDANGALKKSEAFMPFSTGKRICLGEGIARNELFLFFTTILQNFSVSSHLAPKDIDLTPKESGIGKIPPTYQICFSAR

Cytochrome P450 2B1 [8] = target: T10, Cytochrome P450 2B1; test: Mechanism based inhibition of rat cytochrome P450 2B1
CYP2B6 = target: T11, CYP2B6 (Homo sapiens, UniProt P20813); test: (§4) Mechanism based inhibition of human cytochrome P450 2B6; conditions: human
T11 sequence (P20813 whole entry): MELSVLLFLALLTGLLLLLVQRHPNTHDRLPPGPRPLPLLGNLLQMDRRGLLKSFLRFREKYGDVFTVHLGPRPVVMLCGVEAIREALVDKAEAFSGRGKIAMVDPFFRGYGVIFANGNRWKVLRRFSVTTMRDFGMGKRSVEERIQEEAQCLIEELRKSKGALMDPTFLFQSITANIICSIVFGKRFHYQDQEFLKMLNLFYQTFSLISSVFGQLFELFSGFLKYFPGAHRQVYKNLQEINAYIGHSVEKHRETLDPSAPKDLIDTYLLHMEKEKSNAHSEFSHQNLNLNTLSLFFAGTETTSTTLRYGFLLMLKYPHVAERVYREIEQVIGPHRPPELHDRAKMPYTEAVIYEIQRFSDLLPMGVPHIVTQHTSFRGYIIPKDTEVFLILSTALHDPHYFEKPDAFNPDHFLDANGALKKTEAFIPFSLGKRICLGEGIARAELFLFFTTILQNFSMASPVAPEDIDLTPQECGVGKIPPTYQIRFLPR

Cytochrome P450 2B6 = target: T12, Cytochrome P450 2B6 (Homo sapiens, UniProt P20813); test: as §4
T12 sequence (P20813 whole entry): T11 sequence (P20813 whole entry)

Sequence of Cytochrome P450 2E1 (P05182 whole entry): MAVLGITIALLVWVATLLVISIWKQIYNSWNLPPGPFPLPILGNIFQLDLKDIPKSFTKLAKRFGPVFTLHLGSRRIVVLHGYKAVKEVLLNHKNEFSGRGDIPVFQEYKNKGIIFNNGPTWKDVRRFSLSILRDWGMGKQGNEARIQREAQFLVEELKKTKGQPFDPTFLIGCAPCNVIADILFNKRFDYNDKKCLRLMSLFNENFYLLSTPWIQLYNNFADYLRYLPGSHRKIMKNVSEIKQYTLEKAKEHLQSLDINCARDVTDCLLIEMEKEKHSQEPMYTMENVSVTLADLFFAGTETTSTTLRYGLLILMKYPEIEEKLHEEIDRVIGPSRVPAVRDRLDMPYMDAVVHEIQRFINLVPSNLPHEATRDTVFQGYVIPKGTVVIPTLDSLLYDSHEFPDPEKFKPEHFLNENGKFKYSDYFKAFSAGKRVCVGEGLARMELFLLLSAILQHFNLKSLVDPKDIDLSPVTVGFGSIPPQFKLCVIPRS

C[C@@H](c1cc2ccccc2s1)N(O)C(N)=O
Ki (Cytochrome P450 1A2 [1]): 98200 nM
kinact (CYP1A2 [2]): 0.000617 s⁻¹

C[C@H](c1cc2ccccc2s1)N(O)C(N)=O
Ki (Cytochrome P450 1A2 [1]): 66000 nM
kinact (CYP1A2 [2]): 0.0002 s⁻¹

C#Cc1cc2cccc3ccc4cccc1c4c32
Ki (Cytochrome P450 1A2 [3]): 1200 nM
kinact (CYP1A2 [4]): 0.005 s⁻¹
kinact (CYP1A1): 0.00117 s⁻¹
Ki (Cytochrome P450 1A1 [5]): 10 nM

C/C=C\Cl.Cl/C=C\Cl
mechanism based inhibition (Cytochrome P450 2E1): Cytochrome P450 mechanistic inhibitor: PMID 9851676

C#Cc1cc2ccc3cccc4ccc(c1)c2c34
mechanism based inhibition (Cytochrome P450 1A1 [6]): Cytochrome P450 mechanistic inhibitor: PMID 9760279
mechanism based inhibition (Cytochrome P450 1B1): Cytochrome P450 mechanistic inhibitor: PMID 9760279

CC#Cc1ccc2ccc3cccc4ccc1c2c34
Ki (Cytochrome P450 1A2 [3]): 4 nM
kinact (CYP1A2 [4]): 0.001 s⁻¹
kinact (CYP1A1): 0.000333 s⁻¹
Ki (Cytochrome P450 1A1 [5]): 300 nM

C#Cc1ccc(-c2ccccc2)cc1
Ki (Cytochrome P450 1A2 [3]): 870 nM
kinact (CYP1A2 [4]): 0.00167 s⁻¹
kinact (CYP1A1): 0.001 s⁻¹
Ki (Cytochrome P450 1A1 [5]): 270 nM

CC(c1cc2ccccc2s1)N(O)C(N)=O (racemic) [ZILEUTON]
Ki (Cytochrome P450 1A2 [1]): 117000 nM
kinact (CYP1A2 [2]): 0.000583 s⁻¹

CNCCCN1c2ccccc2CCc2ccccc21 [DESIPRAMINE]
mechanism based inhibition (Cytochrome P450 2C11): Cytochrome P450 mechanistic inhibitor: PMID 14555335

CNCCC(Oc1ccc(C(F)(F)F)cc1)c1ccccc1 (stereo unspecified) [FLUOXETINE]
mechanism based inhibition (Cytochrome P450 2C11): Cytochrome P450 mechanistic inhibitor: PMID 14555335

CNCCC(Oc1ccccc1OC)c1ccccc1 (stereo unspecified) [NISOXETINE]
mechanism based inhibition (Cytochrome P450 2C11): Cytochrome P450 mechanistic inhibitor: PMID 14555335

O=NOO [PEROXYNITRITE]
mechanism based inhibition (Cytochrome P450 2B1 [7]): Cytochrome P450 mechanistic inhibitor: PMID 9760281
mechanism based inhibition (Cytochrome P450 2B1 [8]): Cytochrome P450 mechanistic inhibitor: PMID 12588183

c1ccc(C2(N3CCCCC3)CCCCC2)cc1 [PHENCYCLIDINE]
mechanism based inhibition (Cytochrome P450 2B1 [7]): Cytochrome P450 mechanistic inhibitor: PMID 9029055
kinact (CYP2B6): 0.000167 s⁻¹
Ki (Cytochrome P450 2B6): 10000 nM

S=P(N1CC1)(N1CC1)N1CC1 [THIOTEPA]
Ki (Cytochrome P450 2B1 [8]): 31000 nM

ClC=C(Cl)Cl [TRICHLOROETHYLENE]
mechanism based inhibition (Cytochrome P450 2E1): Cytochrome P450 mechanistic inhibitor: PMID 9851676
